Reference: patent US7427627B2, “N-(4-(4-methylthiazol-5-yl) pyrimidin-2-yl)-N-phenylamines as antiproliferative compounds” (Cyclacel Limited, priority 2001, dated 2008)
Read-outs that look alike come from different tables or passages of the source.

Legend:
A549 = experiment: 72-h MTT cytotoxicity assay, A549; assay type: cell-based, human; settings: Table 1, 72 h
Procedure: In short: cells were seeded into 96-well plates according to doubling time and incubated overnight at 37° C. Test compounds were made up in DMSO and a 1/3 dilution series prepared in 100 μL cell media, added to cells (in triplicates) and incubated for 72 ho at 37° C. MTT was made up as a stock of 5 mg/mL in cell media and filter-sterilised. Media was removed from cells followed by a wash with 200 μL PBS. MTT solution was then added at 20 μL per well and incubated in the dark at 37° C. for 4 h. MTT solution was removed and cells again washed with 200 μL PBS. MTT dye was solubilised with 200 μL per well of DMSO with agitation.

HT29 = experiment: 72-h MTT cytotoxicity assay, HT29; assay type: cell-based; settings: Homo sapiens, HT-29, read-out: 72-h MTT in vitro IC50 (μM) HT29; Table 1; 72 h
Procedure: (§1) The compounds from the examples above were subjected to a standard cellular proliferation assay using human tumour cell lines obtained from the ATCC (American Type Culture Collection, 10801 University Boulevard, Manessas, Va. 20110-2209, USA). Standard 72-h MTT (thiazolyl blue; 3-[4,5-dimethylthiazol-2-yl]-2,5-diphenyltetrazolium bromide) assays were performed (Haselsberger, K.; Peterson, D. C.; Thomas, D. G.; Darling, J. L. Anti Cancer Drugs 1996, 7, 331-8; Loveland, B. E.; Johns, T. G.; Mackay, I. R.; Vaillant, F.; Wang, Z. X.; Hertzog, P. J. Biochemistry International 1992, 27, 501-10). In short: cells were seeded into 96-well plates according to doubling time and incubated overnight at 37° C. Test compounds were made up in DMSO and a 1/3 dilution series prepared in 100 μL cell media, added to cells (in triplicates) and incubated for 72 ho at 37° C. MTT was made up as a stock of 5 mg/mL in cell media and filter-sterilised. Media was removed from cells followed by a wash with 200 μL PBS. MTT solution was then added at 20 μL per well and incubated in the dark at 37° C. for 4 h. MTT solution was removed and cells again washed with 200 μL PBS. MTT dye was solubilised with 200 μL per well of DMSO with agitation.

Saos-2 = experiment: 72-h MTT cytotoxicity assay, Saos-2; assay type: cell-based; settings: Homo sapiens, SAOS-2, read-out: 72-h MTT in vitro IC50 (μM) Saos-2; Table 1; 72 h
Procedure: as §1

CDK2/cyclin E = target: T1, CDK2/cyclin E (Homo sapiens, UniProt P24941); experiment: Kinase assay CDK2/cyclin E; assay type: biochemical; settings: Table 1; read-out: Kinase inhibition, IC50 (μM) CDK2/E
T1 construct: His6

CDK4/cyclin D1 = CDK4/cyclin D1 (Homo sapiens, UniProt P11802); experiment: Kinase assay CDK4/cyclin D1;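 also: Enzyme: His6-tagged recombinant human CDK4 produced in baculovirus-infected Sf9 insect cells and purified by metal-chelate chromatography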
CDK4/cyclin D1, sequence (P11802 whole entry): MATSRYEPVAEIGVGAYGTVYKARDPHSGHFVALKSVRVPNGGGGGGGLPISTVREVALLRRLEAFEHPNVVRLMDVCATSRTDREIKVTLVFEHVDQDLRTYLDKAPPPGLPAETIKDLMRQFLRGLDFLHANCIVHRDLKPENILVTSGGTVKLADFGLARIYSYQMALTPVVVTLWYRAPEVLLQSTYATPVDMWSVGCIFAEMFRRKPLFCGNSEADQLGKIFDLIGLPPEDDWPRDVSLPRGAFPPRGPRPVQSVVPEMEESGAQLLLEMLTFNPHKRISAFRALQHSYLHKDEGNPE
CDK4/cyclin D1, sequence (P24385 whole entry partner): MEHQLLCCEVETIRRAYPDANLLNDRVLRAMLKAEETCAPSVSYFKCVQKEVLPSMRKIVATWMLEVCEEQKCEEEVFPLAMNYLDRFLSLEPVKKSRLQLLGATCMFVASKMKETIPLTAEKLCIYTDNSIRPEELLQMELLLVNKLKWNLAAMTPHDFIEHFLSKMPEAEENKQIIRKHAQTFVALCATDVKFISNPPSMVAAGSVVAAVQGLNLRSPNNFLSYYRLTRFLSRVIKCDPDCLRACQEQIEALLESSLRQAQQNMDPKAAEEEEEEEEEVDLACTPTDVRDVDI

[1] = Homo sapiens, A549, read-out: 72-h MTT in vitro IC50 (μM) A549
[2] = read-out: Kinase inhibition, IC50 (μM) CDK4/D1, Table 1

## Cc1nc(N)sc1-c1ccnc(Nc2cccc([N+](=O)[O-])c2)n1 [Compound 1, [4-(2-Amino-4-methyl-thiazol-5-yl)-pyrimidin-2-yl]-(3-nitro-phenyl)-amine]
A549; read-out: 72-h MTT in vitro IC50 (μM) A549
  IC50: 0.22 µM
HT29
  IC50: 0.34 µM
Saos-2
  IC50: 0.42 µM

## Cc1nc(N)sc1-c1ccnc(Nc2ccc(N(C)C)cc2)n1 [Compound 2, N-[4-(2-Amino-4-methyl-thiazol-5-yl)-pyrimidin-2-yl]-N^1,N^1-dimethyl-benzene-1,4-diamine]
A549; [1]
  IC50: 2.37 µM
HT29
  IC50: 2.88 µM
Saos-2
  IC50: 1.54 µM

## Cc1nc(N)sc1-c1ccnc(Nc2ccc(Cl)cc2)n1 [Compound 3, [4-(2-Amino-4-methyl-thiazol-5-yl)-pyrimidin-2-yl]-(4-chloro-phenyl)-amine]
CDK2/cyclin E
  IC50: 0.43 µM
A549; [1]
  IC50: 2.94 µM
HT29
  IC50: 4.01 µM
Saos-2
  IC50: 2.61 µM
CDK4/cyclin D1
  IC50: 0.46 µM

## Cc1nc(N)sc1-c1ccnc(Nc2ccc(C(F)(F)F)cc2)n1 [Compound 7, [4-(2-Amino-4-methyl-thiazol-5-yl)-pyrimidin-2-yl]-(4-trifluoromethyl-phenyl)-amine]
A549; [1]
  IC50: 1.03 µM
HT29
  IC50: 1.26 µM
Saos-2
  IC50: 0.65 µM
CDK4/cyclin D1; [2]
  IC50: 5.83 µM

## COc1ccc(Nc2nccc(-c3sc(N)nc3C)n2)cc1 [Compound 8, [4-(2-Amino-4-methyl-thiazol-5-yl)-pyrimidin-2-yl]-(4-methoxy-phenyl)-amine]
CDK2/cyclin E
  IC50: 0.34 µM
A549; [1]
  IC50: 1.55 µM
HT29
  IC50: 2.71 µM
Saos-2
  IC50: 1.32 µM
CDK4/cyclin D1
  IC50: 0.42 µM

## Cc1nc(N)sc1-c1ccnc(Nc2cccc(Cl)c2)n1 [Compound 9, [4-(2-Amino-4-methyl-thiazol-5-yl)-pyrimidin-2-yl]-(3-chloro-phenyl)-amine]
CDK2/cyclin E
  IC50: 0.02 µM
A549; [1]
  IC50: 0.55 µM
HT29
  IC50: 0.79 µM
Saos-2
  IC50: 0.43 µM
CDK4/cyclin D1; [2]
  IC50: 0.07 µM

## Cc1nc(N)sc1-c1ccnc(Nc2cccc(O)c2)n1 [Compound 13, 3-[4-(2-Amino-4-methyl-thiazol-5-yl)-pyrimidin-2-ylamino]-phenol]
CDK2/cyclin E
  IC50: 0.04 µM
A549; [1]
  IC50: 0.95 µM
HT29
  IC50: 2.87 µM
Saos-2
  IC50: 0.52 µM
CDK4/cyclin D1
  IC50: 0.45 µM

## Cc1nc(N)sc1-c1ccnc(Nc2ccc(I)c([N+](=O)[O-])c2)n1 [Compound 14, [4-(2-Amino-4-methyl-thiazol-5-yl)-pyrimidin-2-yl]-(4-iodo-3-nitro-phenyl)-amine]
CDK2/cyclin E
  IC50: 0.2 µM
A549; [1]
  IC50: 0.29 µM
HT29
  IC50: 0.28 µM
Saos-2
  IC50: 0.31 µM
CDK4/cyclin D1
  IC50: 0.64 µM

## Cc1nc(C)c(-c2ccnc(Nc3ccc(CCO)cc3)n2)s1 [Compound 21, 2-{4-[4-(2,4-Dimethyl-thiazol-5-yl)-pyrimidin-2-ylamino]-phenyl}-ethanol]
A549; [1]
  IC50: 2.79 µM
HT29
  IC50: 3.61 µM
Saos-2
  IC50: 4.37 µM
CDK4/cyclin D1; [2]
  IC50: 3.28 µM

## COc1ccc(Nc2nccc(-c3sc(C)nc3C)n2)cc1OC [Compound 23, (3,4-Dimethoxy-phenyl)-[4-(2,4-dimethyl-thiazol-5-yl)-pyrimidin-2-yl]-amine]
CDK2/cyclin E
  IC50: 0.03 µM
A549; [1]
  IC50: 1.57 µM
HT29
  IC50: 1.17 µM
Saos-2
  IC50: 2.02 µM
CDK4/cyclin D1; [2]
  IC50: 1.06 µM

## COc1ccc(Nc2nccc(-c3sc(C)nc3C)n2)cc1O [Compound 24, 5-[4-(2,4-Dimethyl-thiazol-5-yl)-pyrimidin-2-ylamino]-2-methoxy-phenol]
A549; [1]
  IC50: 0.44 µM
HT29
  IC50: 5.47 µM
Saos-2
  IC50: 0.16 µM
CDK4/cyclin D1; [2]
  IC50: 1.68 µM

## COc1ccc(Nc2nccc(-c3sc(C)nc3C)n2)cc1N(C)C [Compound 28, N^1-[4-(2,4-Dimethyl-thiazol-5-yl)-pyrimidin-2-yl]-4-methoxy-N^3,N^3-dimethyl-benzene-1,3-diamine]
CDK2/cyclin E
  IC50: 0.56 µM
A549; [1]
  IC50: 2.07 µM
HT29
  IC50: 2.23 µM
Saos-2
  IC50: 1.59 µM
CDK4/cyclin D1
  IC50: 2.88 µM

## CNc1nc(C)c(-c2ccnc(Nc3ccc(N(C)C)cc3)n2)s1 [Compound 29, N,N-Dimethyl-N′-[4-(4-methyl-2-methylamino-thiazol-5-yl)-pyrimidin-2-yl]-benzene-1,4-diamine]
CDK2/cyclin E
  IC50: 0.32 µM
A549; [1]
  IC50: 0.4 µM
HT29
  IC50: 0.6 µM
Saos-2
  IC50: 0.8 µM
CDK4/cyclin D1
  IC50: 0.99 µM

## CNc1nc(C)c(-c2ccnc(Nc3ccc(I)c([N+](=O)[O-])c3)n2)s1 [Compound 30, (4-Iodo-3-nitro-phenyl)-[4-(4-methyl-2-methylamino-thiazol-5-yl)-pyrimidin-2-yl]-amine]
CDK2/cyclin E
  IC50: 0.12 µM
A549; [1]
  IC50: 0.94 µM
HT29
  IC50: 1.07 µM
Saos-2
  IC50: 2.31 µM
CDK4/cyclin D1
  IC50: 0.25 µM

## Cc1c(-c2ccnc(Nc3ccc(O)cc3)n2)sc(=O)n1C [Compound 31, 5-[2-(4-Hydroxy-phenylamino)-pyrimidin-4-yl]-3,4-dimethyl-3H-thiazol-2-one]
A549; [1]
  IC50: 0.29 µM
HT29
  IC50: 0.87 µM
Saos-2
  IC50: 0.4 µM

## Cc1c(-c2ccnc(Nc3cccc([N+](=O)[O-])c3)n2)sc(=O)n1C [Compound 32, 3,4-Dimethyl-5-[2-(3-nitro-phenylamino)-pyrimidin-4-yl]-3H-thiazol-2-one]
A549; [1]
  IC50: 0.01 µM
HT29
  IC50: 0.01 µM
Saos-2
  IC50: 0.1 µM

## Cc1c(-c2ccnc(Nc3ccc(F)cc3)n2)sc(=O)n1C [Compound 34, 5-[2-(4-Fluoro-phenylamino)-pyrimidin-4-yl]-3,4-dimethyl-3H-thiazol-2-one]
A549; [1]
  IC50: 0.51 µM
HT29
  IC50: 0.38 µM
Saos-2
  IC50: 1.27 µM

## Cc1c(-c2ccnc(Nc3ccc(Cl)cc3)n2)sc(=O)n1C [Compound 35, 5-[2-(4-Chloro-phenylamino)-pyrimidin-4-yl]-3,4-dimethyl-3H-thiazol-2-one]
CDK2/cyclin E
  IC50: 0.11 µM
A549; [1]
  IC50: 0.89 µM
HT29
  IC50: 0.4 µM
Saos-2
  IC50: 2.78 µM
CDK4/cyclin D1
  IC50: 1.09 µM

## COc1ccc(Nc2nccc(-c3sc(=O)n(C)c3C)n2)cc1 [Compound 36, 5-[2-(4-Methoxy-phenylamino)-pyrimidin-4-yl]-3,4-dimethyl-3H-thiazol-2-one]
CDK2/cyclin E
  IC50: 0.25 µM
A549; [1]
  IC50: 0.68 µM
HT29
  IC50: 0.69 µM
Saos-2
  IC50: 3.53 µM
CDK4/cyclin D1
  IC50: 0.96 µM

## Cc1c(-c2ccnc(Nc3cccc(O)c3)n2)sc(=O)n1C [Compound 37, 5-[2-(3-Hydroxy-phenylamino)-pyrimidin-4-yl]-3,4-dimethyl-3H-thiazol-2-one]
CDK2/cyclin E
  IC50: 0.12 µM
A549; [1]
  IC50: 0.66 µM
HT29
  IC50: 1.99 µM
Saos-2
  IC50: 0.98 µM
CDK4/cyclin D1
  IC50: 1.41 µM

## Cc1c(-c2ccnc(Nc3ccc(F)c([N+](=O)[O-])c3)n2)sc(=O)n1C [Compound 38, 5-[2-(4-Fluoro-3-nitro-phenylamino)-pyrimidin-4-yl]-3,4-dimethyl-3H-thiazol-2-one]
CDK2/cyclin E
  IC50: 0.12 µM
A549; [1]
  IC50: 1.12 µM
HT29
  IC50: 0.55 µM
Saos-2
  IC50: 2.17 µM
CDK4/cyclin D1
  IC50: 2.33 µM

## Cc1cc(Nc2nccc(-c3sc(=O)n(C)c3C)n2)ccc1Cl [Compound 39, 5-[2-(4-Chloro-3-methyl-phenylamino)-pyrimidin-4-yl]-3,4-dimethyl-3H-thiazol-2-one]
CDK2/cyclin E
  IC50: 1.18 µM
CDK4/cyclin D1; [2]
  IC50: 17.9 µM

## Cc1cc(Nc2nccc(-c3sc(=O)n(C)c3C)n2)ccc1F [Compound 41, 5-[2-(4-Fluoro-3-methyl-phenylamino)-pyrimidin-4-yl]-3,4-dimethyl-3H-thiazol-2-one]
A549; [1]
  IC50: 2.41 µM
HT29
  IC50: 2.19 µM
Saos-2
  IC50: 7.98 µM

## Cc1ccc(Nc2nccc(-c3sc(=O)n(C)c3C)n2)cc1[N+](=O)[O-] [Compound 42, 3,4-Dimethyl-5-[2-(4-methyl-3-nitro-phenylamino)-pyrimidin-4-yl]-3H-thiazol-2-one]
A549; [1]
  IC50: 0.003 µM
HT29
  IC50: 0.004 µM
Saos-2
  IC50: 0.005 µM

## Cc1c(-c2ccnc(Nc3ccc(N(C)C)cc3)n2)sc(=O)n1C [Compound 43, 5-[2-(4-Dimethylamino-phenylamino)-pyrimidin-4-yl]-3,4-dimethyl-3H-thiazol-2-one]
A549; [1]
  IC50: 2.2 µM
HT29
  IC50: 1.69 µM
Saos-2
  IC50: 3.36 µM
CDK4/cyclin D1
  IC50: 3.82 µM

## Cc1nc(N(C)C)sc1-c1ccnc(Nc2cccc([N+](=O)[O-])c2)n1 [Compound 52, [4-(2-Dimethylamino-4-methyl-thiazol-5-yl)-pyrimidin-2-yl]-(3-nitro-phenyl)-amine]
A549; [1]
  IC50: 2.47 µM
HT29
  IC50: 3.41 µM
Saos-2
  IC50: 2.57 µM
CDK4/cyclin D1; Kinase inhibition, IC50 (μM) CDK4/D1, Table 1
  IC50: 10 µM

## Cc1nc(NCCO)sc1-c1ccnc(Nc2ccc(F)cc2)n1 [Compound 59, 2-{5-[2-(4-Fluoro-phenylamino)-pyrimidin-4-yl]-4-methyl-thiazol-2-ylamino}-ethanol]
CDK2/cyclin E
  IC50: 0.08 µM
CDK4/cyclin D1
  IC50: 15 µM
